Read-outs that look alike come from different tables or passages of the source. Square brackets hold non-standard residues; d marks the D form. Peptide text beside a SMILES is read from it. hPhe = N[C@@H](CCc1ccccc1)C(=O)O
How the values were obtained:
mMC1R [1] = molecular target: T1, mMC1R (Mus musculus, UniProt Q01727); assay: cell-based
mMC4R [2] = molecular target: T2, mMC4R (Mus musculus, UniProt P56450); conditions: depending on the cAMP assay utilized; cited from earlier work
mMC1R [3] = molecular target: T1, mMC1R; conditions: maximal stimulation relative to NDP-MSH; sigmoidal dose-response
mMC4R [4] = molecular target: T2, mMC4R
mMC3R [5] = molecular target: T3, mMC3R (Mus musculus, UniProt P33033)
T3 sequence (P33033 whole entry): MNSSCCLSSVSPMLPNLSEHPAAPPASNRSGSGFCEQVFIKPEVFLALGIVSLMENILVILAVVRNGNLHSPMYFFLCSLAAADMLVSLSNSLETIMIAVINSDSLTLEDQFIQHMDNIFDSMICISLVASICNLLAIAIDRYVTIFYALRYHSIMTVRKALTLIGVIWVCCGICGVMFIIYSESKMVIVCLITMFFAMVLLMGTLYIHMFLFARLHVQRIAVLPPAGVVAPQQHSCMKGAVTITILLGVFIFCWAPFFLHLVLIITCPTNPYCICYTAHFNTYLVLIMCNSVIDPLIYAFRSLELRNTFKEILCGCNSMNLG

mMC3R [6] = molecular target: T3, mMC3R; remark: listed apart in the source
mMC5R = mMC5R (Mus musculus, UniProt P41149); assay: AlphaScreen cAMP assay, agonist/inverse agonist activity at mMC5R
Sequence of mMC5R (P41149 whole entry): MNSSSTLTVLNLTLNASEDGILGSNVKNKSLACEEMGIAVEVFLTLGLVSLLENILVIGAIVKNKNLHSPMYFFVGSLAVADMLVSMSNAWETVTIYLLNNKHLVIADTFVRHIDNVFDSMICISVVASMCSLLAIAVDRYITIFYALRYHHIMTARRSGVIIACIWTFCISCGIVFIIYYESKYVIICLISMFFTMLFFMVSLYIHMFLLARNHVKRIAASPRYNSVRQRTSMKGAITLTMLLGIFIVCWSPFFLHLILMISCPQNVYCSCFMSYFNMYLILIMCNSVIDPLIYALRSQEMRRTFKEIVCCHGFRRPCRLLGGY

mMC3R [7] = molecular target: T3, mMC3R; conditions: cited from earlier work
mMC4R [8] = molecular target: T2, mMC4R; conditions: cited from earlier work
mMC4R [9] = molecular target: T2, mMC4R; remark: listed apart in the source
MC1R = conditions: read-out: MC1R agonist EC50; cited from earlier work
[10] = calculated using antagonist Ki values
[11] = calculated using Ki values from Schild analysis
[12] = β-galactosidase reporter gene assay

T2 sequence (P56450 whole entry): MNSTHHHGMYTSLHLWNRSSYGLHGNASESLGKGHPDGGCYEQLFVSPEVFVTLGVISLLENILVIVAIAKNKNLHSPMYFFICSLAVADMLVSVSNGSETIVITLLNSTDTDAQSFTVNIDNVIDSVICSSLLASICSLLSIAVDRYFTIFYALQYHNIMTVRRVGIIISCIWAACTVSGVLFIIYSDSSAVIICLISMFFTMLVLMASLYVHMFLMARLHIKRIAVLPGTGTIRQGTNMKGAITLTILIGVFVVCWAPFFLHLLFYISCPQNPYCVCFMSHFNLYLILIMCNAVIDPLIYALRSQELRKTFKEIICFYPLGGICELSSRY
T1 sequence (Q01727 whole entry): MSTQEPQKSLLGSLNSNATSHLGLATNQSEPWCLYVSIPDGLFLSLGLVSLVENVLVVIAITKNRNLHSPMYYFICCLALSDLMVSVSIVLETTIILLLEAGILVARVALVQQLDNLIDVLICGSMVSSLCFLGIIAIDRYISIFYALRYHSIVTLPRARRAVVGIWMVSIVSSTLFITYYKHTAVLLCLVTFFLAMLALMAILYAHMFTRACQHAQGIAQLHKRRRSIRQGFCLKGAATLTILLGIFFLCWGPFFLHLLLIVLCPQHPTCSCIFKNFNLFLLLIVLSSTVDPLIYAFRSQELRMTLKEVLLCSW

For `C[C@@H]1NC(=O)[C@H](CC(N)=O)NC(=O)[C@H](Cc2ccccc2)NC(=O)[C@H](Cc2ccccc2)NC(=O)[C@H](CCCNC(=N)N)NC(=O)[C@@H]2CCCN2C(=O)[C@H]2CCCN2C(=O)[C@H](Cc2ccccc2)NC1=O` [Compound 1, c[Pro-Arg-Phe-Phe-Asn-Ala-Phe-DPro]], the EC50 (mMC1R [1]) is listed as 2800 ± 600 nM, the “mMC4R pA2” value (mMC4R [2]) is listed as 7.7–8.1 and the “mMC1R partial agonist activity (X%), receptor stimulated to given percent” value (mMC1R [3]) is listed as 80%.

With `C[C@@H]1NC(=O)[C@H](CC(N)=O)NC(=O)[C@H](CCc2ccccc2)NC(=O)[C@H](Cc2ccccc2)NC(=O)[C@H](CCCNC(=N)N)NC(=O)[C@@H]2CCCN2C(=O)[C@H]2CCCN2C(=O)[C@H](Cc2ccccc2)NC1=O` [Compound 13, c[Pro-Arg-Phe-hPhe-Asn-Ala-Phe-DPro]] the Kb (mMC4R [4]) was 5.01 nM, the “mMC4R potency compared to lead peptide 1 in words” value (mMC4R [4]) was “equipotent to the lead peptide” and the “selectivity for the mMC4R over the mMC3R” value (mMC4R [4]; [10]) was “approximately 500 fold”. The “Antagonist mMC3R pA2” value (mMC3R [5]) was 5.6±0.2, the Kb (mMC3R [6]) was 2510 nM and the “Antagonist mMC3R pA2” value (mMC3R [6]; Schild analysis with agonist NDP-MSH, pA2 = −log[Ki]) was 5.6. For the same molecule, the “fold reduced potency at the mMC3R compared to 1” value (mMC3R [6]; [11]) was 5 fold, the EC50 (mMC5R) was greater than 100000 nM and the “mMC3R antagonist activity in words” value (mMC3R [7]; [12]) was “did not possess antagonist activity”. The “fold less potent than 1 at the mMC4R” value (mMC4R [8]; [12]) was 5 fold.

For `C[C@@H]1NC(=O)[C@H](CCCNC(=N)N)NC(=O)[C@H](CCc2ccccc2)NC(=O)[C@H](Cc2ccccc2)NC(=O)[C@H](CCCNC(=N)N)NC(=O)[C@@H]2CCCN2C(=O)[C@H]2CCCN2C(=O)[C@H](Cc2ccccc2)NC1=O` [Compound 21, c[Pro-Arg-Phe-hPhe-Arg-Ala-Phe-DPro]] (cyclo(RF[hPhe]RAF[dP]P)), the “mMC4R potency compared to AGRP in words” value (mMC4R [4]) was “equipotent to AGRP”, the “fold increase in potency at the mMC4R compared to 1” value (mMC4R [4]; [11]) was 6 fold and the “fold decrease in mMC4R selectivity compared to 1” value (mMC4R [4]; [10]) was 7 fold. The “Antagonist mMC4R pA2” value (mMC4R [9]) was 8.9, the “fold less potent than AGRP at the mMC3R” value (mMC3R [6]) was 5 fold and the “mMC5R activity in words” value (mMC5R; up to 100 μM) was “did not result in mMC5R stimulation”.

In the case of “Tyr-c[Cys-Arg-Phe-Phe-Asn-Ala-Phe-Cys]-Tyr [hAGRP(109–118), reference compound]”, the EC50 (MC1R) is given as 3000 nM, the “mMC3R activity in words” value (mMC3R [7]; β-galactosidase reporter gene bioassay, up to 10 μM) is given as “No activity (Agonist or Antagonist)” and the “Antagonist mMC4R pA2” value (mMC4R [8]; β-galactosidase reporter gene bioassay) is given as 6.8±0.4.

— article PMC6174881 (Journal of medicinal chemistry, 2018)
